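Values below derive from 48-hour exposures of cells grown in 96-well plates, with endpoints linearly interpolated between the two concentrations bracketing the appropriate inhibition level. Definition used: TGI = concentration required for complete inhibition of growth.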
Key:
Assay in all cases: NCI anticancer screen, dose series, 48 h
786-0 renal = system: 786-0 renal
A498 renal = system: A498 renal
A549 NSCLC = system: A549 NSCLC
ACHN renal = system: ACHN renal
CAKI-1 renal = system: CAKI-1 renal
CCRF-CEM leukemia = system: CCRF-CEM leukemia
COLO 205 colon = system: COLO 205 colon
DLD-1 colon = system: DLD-1 colon
DMS 114 small cell lung = system: DMS 114 small cell lung
DMS 273 small cell lung = system: DMS 273 small cell lung
EKVX NSCLC = system: EKVX NSCLC
HCC-2998 colon = system: HCC-2998 colon
HCT-116 colon = system: HCT-116 colon
HCT-15 colon = system: HCT-15 colon
HL-60(TB) leukemia = system: HL-60(TB) leukemia
HOP-18 NSCLC = system: HOP-18 NSCLC
HOP-62 NSCLC = system: HOP-62 NSCLC
HOP-92 NSCLC = system: HOP-92 NSCLC
HT29 colon = system: HT29 colon
IGROV1 ovarian = system: IGROV1 ovarian
K-562 leukemia = system: K-562 leukemia
KM12 colon = system: KM12 colon
KM20L2 colon = system: KM20L2 colon
LXFL 529 NSCLC = system: LXFL 529 NSCLC
M14 melanoma = system: M14 melanoma
M19-MEL melanoma = system: M19-MEL melanoma
MALME-3M melanoma = system: MALME-3M melanoma
MOLT-4 leukemia = system: MOLT-4 leukemia
NCI-H226 lung = system: NCI-H226 lung
NCI-H23 lung = system: NCI-H23 lung
NCI-H460 lung = system: NCI-H460 lung
NCI-H522 lung = system: NCI-H522 lung
OVCAR-3 ovarian = system: OVCAR-3 ovarian
OVCAR-4 ovarian = system: OVCAR-4 ovarian
OVCAR-5 ovarian = system: OVCAR-5 ovarian
OVCAR-8 ovarian = system: OVCAR-8 ovarian
RPMI-8226 leukemia = system: RPMI-8226 leukemia
RXF 393 renal = system: RXF 393 renal
SF-268 CNS = system: SF-268 CNS
SF-295 CNS = system: SF-295 CNS
SF-539 CNS = system: SF-539 CNS
SK-MEL-2 melanoma = system: SK-MEL-2 melanoma
SK-MEL-28 melanoma = system: SK-MEL-28 melanoma
SK-MEL-5 melanoma = system: SK-MEL-5 melanoma
SK-OV-3 ovarian = system: SK-OV-3 ovarian
SN12C renal = system: SN12C renal
SNB-19 CNS = system: SNB-19 CNS
SNB-75 CNS = system: SNB-75 CNS
SNB-78 CNS = system: SNB-78 CNS
SR leukemia = system: SR leukemia
SW-620 colon = system: SW-620 colon
U251 CNS = system: U251 CNS
UACC-257 melanoma = system: UACC-257 melanoma
UACC-62 melanoma = system: UACC-62 melanoma
UO-31 renal = system: UO-31 renal
LOX IMVI melanoma = system: LOX IMVI melanoma
TK-10 renal = system: TK-10 renal

Measured: TGI

Cc1ccccc1-n1c(=O)sc2c(=O)n(-c3ccccc3)c(=S)[nH]c21
> 100 µM: 786-0 renal | A498 renal | A549 NSCLC | ACHN renal | CAKI-1 renal | CCRF-CEM leukemia | COLO 205 colon | DLD-1 colon | DMS 114 small cell lung | DMS 273 small cell lung | EKVX NSCLC | HCC-2998 colon | HCT-116 colon | HCT-15 colon | HL-60(TB) leukemia | HOP-18 NSCLC | HOP-62 NSCLC | HOP-92 NSCLC | HT29 colon | IGROV1 ovarian | K-562 leukemia | KM12 colon | KM20L2 colon | LXFL 529 NSCLC | M14 melanoma | M19-MEL melanoma | MALME-3M melanoma | MOLT-4 leukemia | NCI-H226 lung | NCI-H23 lung | NCI-H460 lung | NCI-H522 lung | OVCAR-3 ovarian | OVCAR-4 ovarian | OVCAR-5 ovarian | OVCAR-8 ovarian | RPMI-8226 leukemia | RXF 393 renal | SF-268 CNS | SF-295 CNS | SF-539 CNS | SK-MEL-2 melanoma | SK-MEL-28 melanoma | SK-MEL-5 melanoma | SK-OV-3 ovarian | SN12C renal | SNB-19 CNS | SNB-75 CNS | SNB-78 CNS | SR leukemia | SW-620 colon | U251 CNS | UACC-257 melanoma | UACC-62 melanoma | UO-31 renal

COc1cc(C(=O)NO)ccc1O
> 100 µM: 786-0 renal | A498 renal | A549 NSCLC | ACHN renal | CCRF-CEM leukemia | COLO 205 colon | DLD-1 colon | DMS 114 small cell lung | DMS 273 small cell lung | EKVX NSCLC | HCC-2998 colon | HCT-116 colon | HCT-15 colon | HL-60(TB) leukemia | HOP-18 NSCLC | HOP-62 NSCLC | HOP-92 NSCLC | HT29 colon | IGROV1 ovarian | K-562 leukemia | KM12 colon | KM20L2 colon | LOX IMVI melanoma | LXFL 529 NSCLC | M14 melanoma | M19-MEL melanoma | MALME-3M melanoma | MOLT-4 leukemia | NCI-H23 lung | NCI-H460 lung | NCI-H522 lung | OVCAR-3 ovarian | OVCAR-4 ovarian | OVCAR-5 ovarian | OVCAR-8 ovarian | RPMI-8226 leukemia | RXF 393 renal | SF-268 CNS | SF-295 CNS | SF-539 CNS | SK-MEL-2 melanoma | SK-MEL-28 melanoma | SK-OV-3 ovarian | SN12C renal | SNB-19 CNS | SNB-75 CNS | SNB-78 CNS | SW-620 colon | TK-10 renal | U251 CNS | UACC-257 melanoma | UACC-62 melanoma | UO-31 renal

Reference: PubChem BioAssay (NCI)
